Assay results taken from patent EP1054888B1 (priority 1998, dated 1999).
Converted amounts (≈) assume the structure as drawn.

Experiments:
Test in all cases: microbe, parasite or virus in culture
Type in all cases: cell-based
[1] = test system: Alternaria solani; conditions: read-out: MIC (Minimum Inhibitory Concentration) ALTESO
[2] = test system: Botrytis cinerea; conditions: read-out: MIC (Minimum Inhibitory Concentration) BOTRCI
[3] = test system: Leptosphaeria nodorum; conditions: Parastagonospora nodorum, read-out: MIC (Minimum Inhibitory Concentration) LEPTNO
[4] = test system: Phytophthora infestans; conditions: read-out: MIC (Minimum Inhibitory Concentration) PHYTIN
[5] = test system: Magnaporthe grisea f. sp. oryzae; conditions: Pyricularia oryzae, read-out: MIC (Minimum Inhibitory Concentration) PYRIOR, Table II; total inhibition of mycelial growth, V8 juice nutrient solution, 6-12 days at 18-25°C, visual inspection
[6] = test system: Pyrenophora teres; conditions: read-out: MIC (Minimum Inhibitory Concentration) PYRNTE
[7] = test system: Rhizoctonia solani; conditions: read-out: MIC (Minimum Inhibitory Concentration) RHIZSO

Row | SMILES | MIC [1] [µg/mL] | MIC [2] [µg/mL] | MIC [3] [µg/mL] | MIC [4] [µg/mL] | MIC [5] [µg/mL] | MIC [6] [µg/mL] | MIC [7] [µg/mL]
1 | Fc1cccc(Cl)c1-c1c(Cl)nc2ncnn2c1C1CCCCC1 [Example 30] | < 0.05 | < 0.05 | 25 (≈ 68.4 µM) | > 100 | < 0.05 | 0.2 (≈ 0.548 µM) | > 100
2 | CCCCc1c(-c2ccccc2)c(Cl)nc2ncnn12 [Example 23] | 6.25 (≈ 21.8 µM) | > 100 | > 100 | 50 (≈ 174 µM) | 25 (≈ 87.2 µM) | > 100 | > 100
3 | COc1cc(F)c(-c2c(Cl)nc3ncnn3c2C2CCC(OC(C)=O)CC2)c(F)c1 (stereo not drawn) [Example 85] | 0.78 (≈ 1.79 µM) | 1.56 (≈ 3.57 µM) | 6.25 (≈ 14.3 µM) | 25 (≈ 57.2 µM) | 0.78 (≈ 1.79 µM) |  | > 100
4 | COc1cc(F)c(-c2c(OC)nc3ncnn3c2C2CCCC2)c(F)c1 [Example 99] | 0.39 (≈ 1.08 µM) | 0.78 (≈ 2.16 µM) | > 100 | > 100 | 0.39 (≈ 1.08 µM) |  | 1.56 (≈ 4.33 µM)
5 | COc1nc2ncnn2c(C2CCCCC2)c1-c1c(F)cccc1F [Example 7, 5-methoxy-7-cyclohexyl-6-(2,6-difluorophenyl)-1,2,4-triazolo[1,5a]pyrimidine] | 1.56 (≈ 4.53 µM) | 12.5 (≈ 36.3 µM) | > 100 | > 100 | 1.56 (≈ 4.53 µM) | > 100 | > 100
6 | COc1nc2ncnn2c([C@H]2CC[C@@H](F)CC2)c1-c1c(F)cc(F)cc1F [Example 75] | 1.56 (≈ 4.1 µM) | 6.25 (≈ 16.4 µM) | 12.5 (≈ 32.9 µM) | > 100 | 0.39 (≈ 1.03 µM) |  | > 100
7 | CCCc1c(-c2c(F)cc(OC)cc2F)c(OC)nc2ncnn12 [Example 98] | 1.56 (≈ 4.67 µM) | 3.13 (≈ 9.36 µM) | 100 (≈ 299 µM) | > 100 | 0.2 (≈ 0.598 µM) |  | 1.56 (≈ 4.67 µM)
8 | O=C1CCCC(=O)C1c1c(-c2c(F)cccc2Cl)c(Cl)nc2ncnn12 [Example 36] | > 100 | > 100 | > 100 | 12.5 (≈ 31.8 µM) | > 100 | > 100 | > 100
9 | CCCCCCc1c(-c2c(F)cccc2Cl)c(Cl)nc2ncnn12 [Example 1, 5-chloro-7-n-hexyl-6-(2-chloro-6-fluorophenyl)-1,2,4-triazolo[1,5a]pyrimidine] |  |  | 12.5 (≈ 34 µM) | 100 (≈ 272 µM) | 1.56 (≈ 4.25 µM) | 3.13 (≈ 8.52 µM) | 
10 | Fc1cccc(Cl)c1-c1c(F)nc2ncnn2c1C1CCCCC1 [Example 37] |  |  | > 100 | > 100 |  | > 100 | > 100
11 | COc1nc2ncnn2c(C2CCCCC2)c1-c1c(F)cc(F)cc1F [Example 49] | 0.2 (≈ 0.552 µM) |  | > 100 | > 100 | 0.39 (≈ 1.08 µM) | 1.56 (≈ 4.31 µM) | > 100
12 | CCCCc1c(-c2c(F)cccc2F)c(Cl)nc2ncnn12 [Example 22] | 0.1 (≈ 0.31 µM) | 1.56 (≈ 4.83 µM) | 1.56 (≈ 4.83 µM) | > 100 | 0.1 (≈ 0.31 µM) | 6.25 (≈ 19.4 µM) | 1.56 (≈ 4.83 µM)
13 | CCCCc1c(-c2ccccc2Cl)c(Cl)nc2ncnn12 [Example 20] | 0.2 (≈ 0.623 µM) | 1.56 (≈ 4.86 µM) | 3.13 (≈ 9.74 µM) | > 100 | < 0.05 | 3.13 (≈ 9.74 µM) | 3.13 (≈ 9.74 µM)
14 | COc1cc(F)c(-c2c(Cl)nc3ncnn3c2C2CCCC2)c(F)c1 [Example 97] | < 0.05 | 0.2 (≈ 0.548 µM) | 6.25 (≈ 17.1 µM) | > 100 | 0.1 (≈ 0.274 µM) |  | 0.39 (≈ 1.07 µM)
15 | CCCCc1c(-c2c(F)cc(OC)cc2F)c(Cl)nc2ncnn12 [Example 96] | < 0.05 | 0.1 (≈ 0.283 µM) | 3.13 (≈ 8.87 µM) | > 100 | < 0.05 |  | 0.78 (≈ 2.21 µM)
16 | COc1cc(F)c(-c2c(Cl)nc3ncnn3c2[C@H]2CC[C@@H](F)CC2)c(F)c1 [Example 87] | < 0.05 | < 0.05 | 0.39 (≈ 0.983 µM) | > 100 | < 0.05 |  | > 100
17 | CCCc1c(-c2c(F)cccc2Cl)c(Cl)nc2ncnn12 [Example 25] | 1.56 (≈ 4.8 µM) | 0.78 (≈ 2.4 µM) | > 100 | 12.5 (≈ 38.4 µM) | 0.1 (≈ 0.308 µM) | 3.13 (≈ 9.63 µM) | 1.56 (≈ 4.8 µM)
18 | COc1cc(F)c(-c2c(Cl)nc3ncnn3c2C2CCCO2)c(F)c1 (stereo not drawn) [Example 95] | 0.2 (≈ 0.545 µM) | 0.78 (≈ 2.13 µM) | 3.13 (≈ 8.53 µM) | 100 (≈ 273 µM) | 0.1 (≈ 0.273 µM) |  | 3.13 (≈ 8.53 µM)
19 | Fc1cccc(Cl)c1-c1c(Cl)nc2ncnn2c1CCC(F)(F)F [Example 32] | 3.13 (≈ 8.26 µM) | 0.78 (≈ 2.06 µM) | > 100 | 50 (≈ 132 µM) | 0.2 (≈ 0.528 µM) | 12.5 (≈ 33 µM) | 6.25 (≈ 16.5 µM)

Row | SMILES | MIC [1] [µg/mL] | MIC [2] [µg/mL] | MIC [3] [µg/mL] | MIC [4] [µg/mL] | MIC [5] [µg/mL] | MIC [6] [µg/mL] | MIC [7] [µg/mL]
20 | CCCCc1c(-c2ccccc2C)c(Cl)nc2ncnn12 [Example 19] | 1.56 (≈ 5.19 µM) | 12.5 (≈ 41.6 µM) | 12.5 (≈ 41.6 µM) | 50 (≈ 166 µM) | 0.78 (≈ 2.59 µM) | 6.25 (≈ 20.8 µM) | > 100
21 | Cc1cccc(C)c1-c1c(-c2c(F)cccc2Cl)c(Cl)nc2ncnn12 [Example 33] | > 100 | > 100 | > 100 | 6.25 (≈ 16.1 µM) | 12.5 (≈ 32.3 µM) | > 100 | > 100
22 | Fc1cccc(F)c1-c1c(Cl)nc2ncnn2c1C1CCCCC1 [Example 40] | 0.1 (≈ 0.287 µM) | 0.39 (≈ 1.12 µM) | > 100 | > 100 | 0.39 (≈ 1.12 µM) | 3.13 (≈ 8.97 µM) | > 100
23 | [N-]=[N+]=Nc1nc2ncnn2c(C2CCCCC2)c1-c1c(F)cccc1Cl [Example 45] | 100 (≈ 269 µM) | > 100 | > 100 | > 100 | 12.5 (≈ 33.6 µM) | > 100 | > 100
24 | COc1cc(F)c(-c2c(Cl)nc3ncnn3c2CC(C)C)c(F)c1 [Example 94] | 0.1 (≈ 0.283 µM) | 0.2 (≈ 0.567 µM) | 3.13 (≈ 8.87 µM) | > 100 | < 0.05 |  | 0.2 (≈ 0.567 µM)
25 | CCc1c(-c2c(F)cccc2Cl)c(Cl)nc2ncnn12 [Example 24] | 12.5 (≈ 40.2 µM) | 6.25 (≈ 20.1 µM) | 3.13 (≈ 10.1 µM) | > 100 | < 0.05 | > 100 | 6.25 (≈ 20.1 µM)
26 | Fc1ccccc1-c1c(Cl)nc2ncnn2c1C1CCCCC1 [Example 42] | 0.39 (≈ 1.18 µM) | 1.56 (≈ 4.72 µM) | 0.39 (≈ 1.18 µM) | > 100 | 0.39 (≈ 1.18 µM) | 3.13 (≈ 9.46 µM) | > 100
27 | CC(C)c1c(-c2c(F)cccc2Cl)c(Cl)nc2ncnn12 [Example 27] | > 100 | 0.78 (≈ 2.4 µM) | 1.56 (≈ 4.8 µM) | > 100 | 0.2 (≈ 0.615 µM) | > 100 | 0.39 (≈ 1.2 µM)
28 | COc1nc2ncnn2c(C2CCCCC2)c1-c1c(F)cccc1Cl [Example 38] | 100 (≈ 277 µM) | > 100 | > 100 | > 100 | 0.78 (≈ 2.16 µM) | > 100 | > 100
29 | Fc1cc(F)c(-c2c(Cl)nc3ncnn3c2[C@H]2CC[C@@H](F)CC2)c(F)c1 [Example 71] | < 0.05 | 0.2 (≈ 0.52 µM) | 0.78 (≈ 2.03 µM) | > 100 | < 0.05 |  | 6.25 (≈ 16.2 µM)
30 | COc1cc(F)c(-c2c(Cl)nc3ncnn3c2C2CC=CCC2)c(F)c1 (stereo not drawn) [Example 74] | < 0.05 | < 0.05 | 0.78 (≈ 2.07 µM) | > 100 | < 0.05 |  | 0.39 (≈ 1.04 µM)
31 | COc1cc(F)c(-c2c(OC)nc3ncnn3c2[C@H]2CC[C@@H](F)CC2)c(F)c1 [Example 89] | < 0.05 | 1.56 (≈ 3.98 µM) | 6.25 (≈ 15.9 µM) | > 100 | < 0.05 |  | 12.5 (≈ 31.9 µM)
32 | COc1cc(F)c(-c2c(Cl)nc3ncnn3c2C2CCCCC2)c(F)c1 [Example 68] | < 0.05 | < 0.05 | 0.39 (≈ 1.03 µM) | > 100 | < 0.05 |  | 0.78 (≈ 2.06 µM)
33 | CC1CCC(c2c(-c3c(F)cccc3Cl)c(Cl)nc3ncnn23)CC1 (stereo not drawn) [Example 2, 5-chloro-7-(4-methylcyclohexyl)-6-(2-chloro-6-fluorophenyl)-1,2,4-triazolo[1,5a]pyrimidine] | 0.1 (≈ 0.264 µM) | 0.2 (≈ 0.527 µM) |  | > 100 | < 0.05 | 1.56 (≈ 4.11 µM) | > 100
34 | CN1C=C(c2c(-c3c(F)cc(F)cc3F)c(Cl)nc3ncnn23)CCC1 [Example 6, 5-chloro-7-(N-methyl-2,3-dehydropiperid-3-yl)-6-(2,4,6-trifluorophenyl)-1,2,4-triazolo[1,5a]pyrimidine] | 3.13 (≈ 8.24 µM) | 25 (≈ 65.8 µM) | 25 (≈ 65.8 µM) | > 100 | 0.78 (≈ 2.05 µM) |  | > 100
35 | COc1cc(F)c(-c2c(OC)nc3ncnn3c2C2CCCCC2)c(F)c1 [Example 69] | < 0.05 | < 0.05 | 1.56 (≈ 4.17 µM) | > 100 | < 0.05 |  | 3.13 (≈ 8.36 µM)
36 | CC(=O)OC1CCC(c2c(-c3c(F)cc(F)cc3F)c(Cl)nc3ncnn23)CC1 (stereo not drawn) [Example 84] | 3.13 (≈ 7.37 µM) | 12.5 (≈ 29.4 µM) | 12.5 (≈ 29.4 µM) | > 100 | 3.13 (≈ 7.37 µM) |  | 100 (≈ 235 µM)
37 | CCCc1c(-c2c(F)cc(OC)cc2F)c(Cl)nc2ncnn12 [Example 93] | 0.2 (≈ 0.59 µM) | 0.2 (≈ 0.59 µM) | 6.25 (≈ 18.5 µM) | 100 (≈ 295 µM) | < 0.05 |  | 0.39 (≈ 1.15 µM)
38 | COc1cc(F)c(-c2c(OC)nc3ncnn3c2CC(C)C)c(F)c1 [Example 100] | 0.39 (≈ 1.12 µM) | 0.78 (≈ 2.24 µM) | > 100 | > 100 | < 0.05 |  | 1.56 (≈ 4.48 µM)
